Consider eight compounds from patent US6620801B2, “17β-amino and hydroxylamino-11β-arylsteroids and their derivatives having agonist or antagonist hormonal properties” (Research Triangle Institute, priority 1998, dated 2003).

Experiment [1] addresses T1, human progesterone hormone receptor (Homo sapiens, UniProt P06401).
T1 construct: The receptor was obtained in cytosol from human T-47D breast cells and [^3H]-R5020 was used as the radioligand; endogenous in cells; host or cells: human T-47D breast cells (cytosol, 34,000 x g supernatant)
T1 sequence (P06401 1-933): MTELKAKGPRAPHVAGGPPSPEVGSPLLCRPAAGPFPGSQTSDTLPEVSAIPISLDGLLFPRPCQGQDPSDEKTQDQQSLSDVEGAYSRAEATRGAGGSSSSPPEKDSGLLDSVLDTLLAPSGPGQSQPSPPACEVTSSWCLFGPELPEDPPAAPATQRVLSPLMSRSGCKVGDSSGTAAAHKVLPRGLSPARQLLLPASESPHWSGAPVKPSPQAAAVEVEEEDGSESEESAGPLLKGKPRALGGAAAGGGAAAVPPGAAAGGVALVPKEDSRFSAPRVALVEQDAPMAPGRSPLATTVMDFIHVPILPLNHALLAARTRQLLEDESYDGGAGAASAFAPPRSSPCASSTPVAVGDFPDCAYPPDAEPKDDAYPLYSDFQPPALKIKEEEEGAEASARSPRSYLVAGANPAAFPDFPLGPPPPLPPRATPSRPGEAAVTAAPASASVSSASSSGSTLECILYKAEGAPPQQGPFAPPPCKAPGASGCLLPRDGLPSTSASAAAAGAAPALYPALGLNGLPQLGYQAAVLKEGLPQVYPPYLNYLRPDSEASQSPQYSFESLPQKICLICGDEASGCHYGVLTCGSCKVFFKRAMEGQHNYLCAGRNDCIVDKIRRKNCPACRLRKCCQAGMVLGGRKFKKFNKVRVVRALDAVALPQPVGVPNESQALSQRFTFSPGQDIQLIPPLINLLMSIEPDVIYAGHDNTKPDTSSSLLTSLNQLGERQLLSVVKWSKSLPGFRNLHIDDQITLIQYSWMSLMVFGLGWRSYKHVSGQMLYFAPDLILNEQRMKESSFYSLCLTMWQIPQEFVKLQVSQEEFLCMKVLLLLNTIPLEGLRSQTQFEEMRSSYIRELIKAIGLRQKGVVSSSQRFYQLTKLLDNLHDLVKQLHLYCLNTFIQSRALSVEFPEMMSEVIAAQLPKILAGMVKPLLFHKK
The experiment in a line: Receptor binding, inhibition of [3H]-R5020 binding in T-47D cytosol. The settings on record: cytosol from human T-47D breast cells, 0.4 nM [3H]-R5020, 4 hours at 4° C.; read-out: Relative Binding Affinity hPR IC50. The protocol: The receptor was obtained in cytosol from human T-47D breast cells and [^3H]-R5020 was used as the radioligand. T47D cells (1 billion/ml) were homogenized in TEDG buffer (10 mM Tris, 1.5 mM EDTA, 1 mM dithiothreitol, 1 mM sodium molybdate, and 10% glycerol) using a Dounce pestle A, and the homogenate was centrifuged at 34,000×g for 1 hour. The supernatant was stored at −80° C. An aliquot of receptor preparation was combined with test compound, 0.4 nM [^3H]-R5020, and TEDG buffer to a final volume of 150 μL and incubated for 4 hours at 4° C. in microtiter plates. At the end of incubation 40 μL 40% polyethylene glycol and 15 μL 1% human gamma globulin was added to the incubate and the contents of each well were harvested onto double thick B filter mats (Wallac LKB) using a TomTec harvester. A film of Meltilux scintillant wax was applied to the dried filter mats and the mats were counted in a scintillation counter to determine inhibition of [^3H]-R5020 binding. Data are expressed as IC50 values, i.e., the concentration of compound that inhibits radioligand binding by 50%.

In experiment [2] the test system is rabbits. The experiment is described as follows: McGinty test (progestational/agonist activity, McPhail score). Format: in vivo. On the set-up: McPhail Index, McGinty Assay (Agonist): scale not given here. The settings on record: rabbit; for McPhail Index, McGinty Assay (Agonist): test compound alone. An excerpt: (§1) Results were scored according to McPhail (McPhail, J. Physiol., 83: 146 (1934)). These are standard procedures well-known to those skilled in the art. The results of these assays are shown in Tables 2 (agonist activity) and 3 (antagonist activity). […] Some compounds were extremely potent in this regard.

The subject of experiment [3] is rabbits. The experiment in a line: Anti-McGinty test (antiprogestational/antagonist activity, test compound plus progesterone, McPhail score). Format: in vivo. The settings on record: rabbit; for McPhail Index, Anti-McGinty Assay (Antagonist): test compound plus progesterone; for Blocking the action of progesterone in the anti-McGinty assay: dose of only 0.3 μg. Details: McPhail Index, Anti-McGinty Assay (Antagonist): scale not given here.
Text: as §1

Experiment [4] has as its system immature female rabbits. The experiment in a line: Anti-estrogenic activity, uterine weight in estradiol-treated immature female rabbits. The conditions noted are these: ± S.E., no estradiol 216.7±37.2 mg. Format: in vivo, rabbit.

SMILES strings stand for the structures.

Consider `CC1CCC2(CCC3C4CCC5=CC(=O)CCC5=C4C(c4ccc(N(C)C)cc4)CC32C)N1O` (stereo not drawn) [11β-[4-(N,N-Dimethylamino)phenyl]-1′-hydroxy-5′-methyl-spiro[estra-4,9-dien-17β,2′-pyrrolidine]-3-one], for which the IC50 (in general, the point on the concentration scale where inhibition reaches its midpoint) in experiment [1] was found to be 5.2 nM. The “McPhail Index, McGinty Assay (Agonist)” value in experiment [2] (dose 0.3 micrograms), in experiment [2] (dose 3 micrograms) and in experiment [2] (dose 30 micrograms) was 0 ± 0 each time. The “McPhail Index, Anti-McGinty Assay (Antagonist)” value (shortened to “McPhail Index … (Antagonist)”) in experiment [3] (dose 0.3 micrograms) is 2.1 ± 0.3; in experiment [3] (dose 3 micrograms) it was 2.4 ± 0.4; in experiment [3] (dose 30 micrograms), 0.7 ± 0.4.

Turning to `CN(C)c1ccc(C2CC3(C)C(CCC34CCCN4O)C3CCC4=CC(=O)CCC4=C23)cc1` (stereo not drawn) [11β-[4-(N,N-Dimethylamino)phenyl]-1′-hydroxy-spiro[estra4,9-dien-17β,2′-pyrrolidine]-3-one], in experiment [1], the IC50 is 3.5 nM. For the same compound, the “McPhail Index, McGinty Assay (Agonist)” value in experiment [2] (dose 0.3 micrograms), in experiment [2] (dose 3 micrograms) and in experiment [2] (dose 30 micrograms) was 0 ± 0 in each case. The “McPhail Index … (Antagonist)” value is 2.7 ± 0.0 in experiment [3] (dose 0.3 micrograms), 2.3 ± 0.5 in experiment [3] (dose 3 micrograms) and 0.07 ± 0.07 in experiment [3] (dose 30 micrograms).

On to `CC#C[C@]1(NC=O)CC[C@H]2[C@@H]3CCC4=CC(=O)CCC4=C3[C@@H](c3ccc(N(C)C)cc3)C[C@@]21C` [11β-[4-(N,N-Dimethylamino)phenyl]-17β-(N-formamido)-17α-(1-propynyl)estra-4,9-dien-3-one], for which the IC50 in experiment [1] was found to be 0.7 nM. The compound also displayed a Uterine weight in experiment [4] (compound orally at 10 mg/day concurrently with 5 μg of estradiol per day) of 716 ± 96.6 mg. Further, the “McPhail Index, McGinty Assay (Agonist)” value in experiment [2] (dose 0.3 micrograms), in experiment [2] (dose 3 micrograms) and in experiment [2] (dose 30 micrograms) was 0 ± 0 throughout. Also, the “McPhail Index … (Antagonist)” value in experiment [3] (dose 0.3 micrograms), in experiment [3] (dose 3 micrograms) and in experiment [3] (dose 30 micrograms) was 0 ± 0 in each case. The “Blocking the action of progesterone in the anti-McGinty assay” value in experiment [3] is “completely effective in blocking the action of progesterone”.

For `CC#CC1(N(C)O)CCC2C3CCC4=CC(=O)CCC4=C3C(c3ccc(N(C)C)cc3)CC21C` (stereo not drawn) [11β-[4-(N,N-Dimethylamino)phenyl]-17β-(N-hydroxy-N-methylamino)-17α-(1-propynyl)estra-4,9-dien-3-one], the IC50 in experiment [1] worked out at 7.1 nM. For the same compound, the “McPhail Index, McGinty Assay (Agonist)” value in experiment [2] (dose 0.3 micrograms), in experiment [2] (dose 3 micrograms) and in experiment [2] (dose 30 micrograms) was 0 ± 0 each time. In addition, the figures for the “McPhail Index … (Antagonist)” value in experiment [3] (dose 0.3 micrograms), in experiment [3] (dose 3 micrograms) and in experiment [3] (dose 30 micrograms) were 2.0 ± 0.2, 0 ± 0 and 0 ± 0, respectively.

On to `CC#C[C@]1(NO)CC[C@H]2[C@@H]3CCC4=CC(=O)CCC4=C3[C@@H](c3ccc(N(C)C)cc3)C[C@@]21C` [11β-[4-(N,N-Dimethylamino)phenyl]-17β-(N-hydroxylamino)-17α-(1-propynyl)estra-4,9-dien-3-one], for which the IC50 in experiment [1] came out at 14.3 nM. Moreover, the “Progestational (agonist) activity in the McGinty assay” value in experiment [2] (at high doses) is “some progestational (agonist) activity”. Moreover, the “McPhail Index, McGinty Assay (Agonist)” value in experiment [2] (dose 0.3 micrograms) was found to be 0 ± 0; in experiment [2] (dose 3 micrograms), 0 ± 0; in experiment [2] (dose 30 micrograms) it was 0.7 ± 0.0. Also, in experiment [3] (at the highest dose), the “Progestational (agonist) activity in the anti-McGinty assay” value is reported as “some progestational (agonist) activity”. Also, the “McPhail Index … (Antagonist)” value in experiment [3] (dose 0.3 micrograms) was 0 ± 0; in experiment [3] (dose 3 micrograms), 0 ± 0; in experiment [3] (dose 30 micrograms), 2.5 ± 0.4. The “Blocking the action of progesterone in the anti-McGinty assay” value in experiment [3] is on record as “completely effective in blocking the action of progesterone”.

On to `CC#CC1(NC(C)=O)CCC2C3CCC4=CC(=O)CCC4=C3C(c3ccc(N(C)C)cc3)CC21C` (stereo not drawn) [17β-(N-Acetamido)-11β-[4-(N,N-dimethylamino)phenyl]-17α-(1-propynyl)estra-4,9-dien-3-one], for which, in experiment [1], the IC50 was found to be 1.3 nM. The “McPhail Index, McGinty Assay (Agonist)” value in experiment [2] (dose 0.3 micrograms), in experiment [2] (dose 3 micrograms) and in experiment [2] (dose 30 micrograms) was 0 ± 0 throughout. Also, the “McPhail Index … (Antagonist)” value in experiment [3] (dose 0.3 micrograms) is on record as 1.8 ± 0.3; in experiment [3] (dose 3 micrograms), 0.1 ± 0.1; in experiment [3] (dose 30 micrograms), 0 ± 0.

On to `CC#C[C@]1(N)CC[C@H]2[C@@H]3CCC4=CC(=O)CCC4=C3[C@@H](c3ccc(N(C)C)cc3)C[C@@]21C` [17β-Amino-11β-[4-(N,N-dimethylamino)phenyl]-17α-(1-propynyl)estra-4,9-dien-3-one], for which the IC50 in experiment [1] stood at 8.3 nM. Besides, the “McPhail Index, McGinty Assay (Agonist)” value in experiment [2] (dose 0.3 micrograms), in experiment [2] (dose 3 micrograms) and in experiment [2] (dose 30 micrograms) was 0 ± 0 each time. Further, the “McPhail Index … (Antagonist)” value in experiment [3] (dose 0.3 micrograms) was 1.6 ± 0.3; in experiment [3] (dose 3 micrograms) it was 0.2 ± 0.1; in experiment [3] (dose 30 micrograms), 0 ± 0.

As to `C[C@]12CC[C@@H]3c4ccc(O)cc4CC[C@H]3[C@@H]1CC[C@@H]2O` [estradiol, reference compound], in experiment [4] (estradiol alone, 5 μg per day), the Uterine weight was 1337 ± 105 mg.
